Results as given in ChEMBL document CHEMBL4420060, “Combinatorial therapies for the treatment of neoplasias using the opioid growth factor receptor” (2013).
Activity calls are given as the source filed them. No cut-off for these calls is given here.

Experiments:
UMSCC1 [1] = test: Induction of cell cycle arrest in human UM-SCC-1 cells assessed as accumulation at G1/S phase after 6 hrs by flow cytometry; assay type: functional, cell-based
UMSCC1 [2] = test: Induction of cell cycle arrest in human UM-SCC-1 cells assessed as accumulation at G1/S phase in presence of OGF after 6 hrs by flow cytometry; assay type: functional, cell-based
MIA PaCa-2 [3] = test: Antitumor activity against human MIAPaCa2 cells xenografted in athymic BALB/c nu/nu nude mouse assessed as tumor incidence at 120 mg/kg dosed every 3 days and co-treated with 10 mg/kg OGF and measured on day 16 after tumor cell inoculation; assay type: functional
MIA PaCa-2 [4] = test: Antitumor activity against human MIAPaCa2 cells xenografted in athymic BALB/c nu/nu nude mouse assessed as time delay in visible tumor development at 120 mg/kg dosed every 3 days and co-treated with 10 mg/kg OGF relative to control; assay type: functional
UMSCC1 [5] = test: Antitumor activity against human UM-SCC-1 cells xenografted in nu/nu mouse assessed as reduction in tumor measured on 4 to 36 day of measurable tumors at 120 mg/kg dosed every 3 days relative to control; assay type: functional, organism-based
UMSCC1 [6] = test: Antitumor activity against human UM-SCC-1 cells xenografted in nu/nu mouse assessed as reduction in tumor measured on 4 to 36 day of measurable tumors at 120 mg/kg dosed every 3 days and co-treated with 10 mg/kg OGF relative to control; assay type: functional, organism-based
MIA PaCa-2 [7] = test: Growth inhibition of human MIAPaCa2 cells assessed as decrease in cell number at 0.01 uM incubated for 48 hrs in presence of 1 uM OGF by trypan blue staining assay relative to control; assay type: functional
MIA PaCa-2 [8] = test: Growth inhibition of human MIAPaCa2 cells assessed as decrease in cell number at 0.01 uM incubated for 72 hrs in presence of 1 uM OGF by trypan blue staining assay relative to control; assay type: functional
MIA PaCa-2 [9] = test: Growth inhibition of human MIAPaCa2 cells assessed as decrease in cell number at 0.01 uM incubated for 48 hrs in presence of 1 uM OGF by MTS assay relative to control; assay type: functional
MIA PaCa-2 [10] = test: Growth inhibition of human MIAPaCa2 cells assessed as decrease in cell number at 0.01 uM incubated for 72 hrs in presence of 1 uM OGF by MTS assay relative to control; assay type: functional
MIA PaCa-2 [11] = test: Growth inhibition of human MIAPaCa2 cells assessed as decrease in cell number at 0.01 uM incubated for 96 hrs in presence of 1 uM opioid antagonist naloxone by MTS assay relative to control; assay type: functional, cell-based
MIA PaCa-2 [12] = test: Growth inhibition of human MIAPaCa2 cells assessed as decrease in cell number at 0.01 uM in presence of 1 uM OGF incubated for 48 hrs followed by compound wash out by 50% replacement of media and measured after 48 hrs by MTS assay relative to control; assay type: functional, cell-based
PANC-1 = test: Growth inhibition of human PANC1 cells assessed as decrease in cell number at 0.01 uM incubated for 72 hrs by MTS assay relative to control; assay type: functional; details: PANC-1, 72 h, read-out: GI
Mus musculus [13] = test: Effect on plasma OGF level in athymic BALB/c nu/nu nude mouse xenografted with MIAPaCa2 cells at 120 mg/kg dosed every 3 days by radioimmunoassay; assay type: functional, organism-based
Mus musculus [14] = test: Effect on plasma OGF level in athymic BALB/c nu/nu nude mouse xenografted with MIAPaCa2 cells at 120 mg/kg dosed every 3 days and co-treated with 10 mg/kg OGF by radioimmunoassay; assay type: functional, organism-based
MIA PaCa-2 [15] = test: Antitumor activity against human MIAPaCa2 cells xenografted in athymic BALB/c nu/nu nude mouse assessed as reduction in tumor weight at 120 mg/kg dosed every 3 days and co-treated with 10 mg/kg OGF measured on day 45 after tumor cell inoculation; assay type: functional; design: scale not given: the % may be the effect or the level left
MIA PaCa-2 [16] = test: Antitumor activity against human MIAPaCa2 cells xenografted in athymic BALB/c nu/nu nude mouse assessed as reduction in tumor volume at 120 mg/kg dosed every 3 days and co-treated with 10 mg/kg OGF measured on day 45 after tumor cell inoculation; assay type: functional; design: scale not given: the % may be the effect or the level left
MIA PaCa-2 [17] = test: Antitumor activity against human MIAPaCa2 cells xenografted in athymic BALB/c nu/nu nude mouse assessed as tumor incidence at 10 mg/kg dosed daily measured on day 10 after tumor cell inoculation (reference value: 80%); assay type: functional
MIA PaCa-2 [18] = test: Antitumor activity against human MIAPaCa2 cells xenografted in athymic BALB/c nu/nu nude mouse assessed as effect on tumor incidence at 10 mg/kg dosed daily measured on day 16 after tumor cell inoculation relative to control; assay type: functional, organism-based
MIA PaCa-2 [19] = test: Antitumor activity against human MIAPaCa2 cells xenografted in athymic BALB/c nu/nu nude mouse assessed as latency time for visible tumor at 120 mg/kg dosed every 3 days and co-treated with 10 mg/kg OGF measured on day 10 after tumor cell inoculation (reference value: 10.1 +/- 1.8 days); assay type: functional
MIA PaCa-2 [20] = test: Antitumor activity against human MIAPaCa2 cells xenografted in athymic BALB/c nu/nu nude mouse assessed as latency time for measurable tumor at 10 mg/kg dosed daily measured on day 10 after tumor cell inoculation (reference value: 13.2 +/- 1.8 days); assay type: functional
MIA PaCa-2 [21] = test: Antitumor activity against human MIAPaCa2 cells xenografted in athymic BALB/c nu/nu nude mouse assessed as latency time for measurable tumor at 120 mg/kg dosed every 3 days and co-treated with 10 mg/kg OGF measured on day 10 after tumor cell inoculation (reference value: 13.2 +/- 1.8 days); assay type: functional
[22] = Toxicity in athymic BALB/c nu/nu nude mouse xenografted with human MIAPaCa2 cells assessed as body weight at 10 mg/kg dosed daily measured on day 45 after tumor cell inoculation (reference value: 33.3 +/- 1 g); assay type: organism-based; details: in vivo
[23] = Toxicity in athymic BALB/c nu/nu nude mouse xenografted with human MIAPaCa2 cells assessed as body weight at 120 mg/kg dosed every 3 days and co-treated with 10 mg/kg OGF measured on day 45 after tumor cell inoculation (reference value: 33.3 +/- 1 g); assay type: organism-based; details: in vivo, 72 h
MIA PaCa-2 [24] = test: Antitumor activity against human MIAPaCa2 cells xenografted in athymic BALB/c nu/nu nude mouse assessed tumor weight at 10 mg/kg dosed daily measured on day 45 after tumor cell inoculation (reference value: 5.5 +/- 1 g); assay type: functional
MIA PaCa-2 [25] = test: Antitumor activity against human MIAPaCa2 cells xenografted in athymic BALB/c nu/nu nude mouse assessed tumor weight at 120 mg/kg dosed every 3 days and co-treated with 10 mg/kg OGF measured on day 45 after tumor cell inoculation (reference value: 5.5 +/- 1 g); assay type: functional
MIA PaCa-2 [26] = test: Antitumor activity against human MIAPaCa2 cells xenografted in athymic BALB/c nu/nu nude mouse assessed tumor volume at 120 mg/kg dosed every 3 days and co-treated with 10 mg/kg OGF measured on day 45 after tumor cell inoculation (reference value: 8935 +/- 1694 mm3); assay type: functional
MIA PaCa-2 [27] = test: Antitumor activity against human MIAPaCa2 cells xenografted in athymic BALB/c nu/nu nude mouse assessed spleen weight at 120 mg/kg dosed every 3 days and co-treated with 10 mg/kg OGF measured on day 45 after tumor cell inoculation (reference value: 761 +/- 61 mg); assay type: functional

Structure (SMILES): Nc1ccn([C@@H]2O[C@H](CO)[C@@H](O)C2(F)F)c(=O)n1 [GEMCITABINE]
- Activity (UMSCC1 [1]): Active
- Activity (UMSCC1 [2]): Active
- Activity (MIA PaCa-2 [3]): 0%
- Time (MIA PaCa-2 [4]): 6 days
- Activity (UMSCC1 [5]): Active
- Activity (UMSCC1 [6]): Active
- growth inhibition (GI) (MIA PaCa-2 [7]): 26.3%
- growth inhibition (GI) (MIA PaCa-2 [8]): 49.2%
- growth inhibition (GI) (MIA PaCa-2 [9]): 26%
- growth inhibition (GI) (MIA PaCa-2 [10]): 49%
- growth inhibition (GI) (MIA PaCa-2 [11]): Active
- growth inhibition (GI) (MIA PaCa-2 [12]): Active
- inhibition of growth at 0.01 µM (PANC-1): 54%
- Activity (Mus musculus [13]): inactive
- Activity (Mus musculus [14]): inactive
- Activity (MIA PaCa-2 [15]): 85%
- Activity (MIA PaCa-2 [16]): 83%
- Activity (MIA PaCa-2 [17]): 60%
- Activity (MIA PaCa-2 [18]): inactive
- Time (MIA PaCa-2 [19]): 16.2 days
- Time (MIA PaCa-2 [20]): 14.2 days
- Time (MIA PaCa-2 [21]): 19.5 days
- Activity [22]: 31.4 g
- Activity [23]: 30.6 g
- Activity (MIA PaCa-2 [24]): 3.5 g
- Activity (MIA PaCa-2 [25]): 0.8 g
- Activity (MIA PaCa-2 [26]): 1477 mm3
- Activity (MIA PaCa-2 [27]): 437 mg
